In assay [1] the test system is Primary BEC (human primary bronchial epithelial cells). Put plainly: Cell proliferation assay (MTT). Type of assay: cell-based. The note with it: 48 h, inhibitor and unit not printed in table (MN58b, μM), read-out: IC50 48 h. On the procedure: (§1) All cell lines used in this study were maintained under standard conditions of temperature (37° C.), humidity (95%), and carbon dioxide (5%). Human primary bronchial epithelial cells, NHBE (BEC) (Cambrex, CC-2541) were grown in BEGM (Bronchial Epithelial cell growth media) BulletKit (Cambrex, CC-3170). Human primary mammary epithelial cells, HMEC (Clonetics, CC-2551) were grown in MEBM medium supplemented with a bullet kit (Clonetics, CC-3150). Epithelial non-small lung cancer cells H460 and H1299, and small cell lung cancer cell lines H510 and H82 were maintained in RPMI supplemented with 10% Fetal Bovine Serum (FBS) (Life Technologies, Grand Island, N.Y.).
(§2) Cells were seeded on 96-well plates (BD, Falcon, Bioscience, San Jose, Calif., USA) at a density of 6000 cells/well, and incubated for 24 h under standard conditions. […] Absorbance is read at 595 nm in a VersaMax Microplate Reader (Molecular Devices, Sunnyvale, Calif., USA). For sensitization with acid ceramidase inhibitor, cells were pre-treated 4 hours with the correspondent IC50 for NOE before treatment with ChoK inhibitors. NOE (N-Oleoyl ethanolamine) was obtained from Calbiochem (La Jolla, Calif., USA).

The test system of assay [2] is primary cultures of tumours of patients with NSCLC. Put plainly: Primary cultures of NSCLC tumours, crystal violet quantification. The note with it: primary NSCLC tumour cultures, 0-20 μM, 10 days. Type of assay: cell-based, human. As to the method:
Resected tissues from NSCLC patients were dissociated (Cell dissociation sieve-tissued grinder Kit CD1, SIGMA), and the obtained cells were seeded in 24 well plates (BD, Falcon, Bioscience, San Jose, Calif., USA). […] The final persistent population in each well was quantified by the method of Cristal Violet as previously described (Rodríguez-González, A. et al., Oncogene, 22:8803-8812). […]

Assay [3] has as its system H460 cells. Put plainly: Affymetrix gene expression analysis of 5-FU metabolization pathway. In kind it is cell-based, human. On the set-up: key to RRM2 (Ribonucleotide Reductase) gene expression / TYMS (Thymidylate synthetase) gene expression / DUT (Deoxyuridine triphosphatase) gene expression: Signal Log Ratio, base 2 (1.0 = 2-fold increase, 0 = no change). As to the method: The RNAs from the biopsies selected were isolated for microarrays and QT-PCR, using RNeasy Mini Kit (QIAGEN, Hilden, Germany) following the instructions of the manufactures. Samples were prepared and the array hybridized according to the Affymetrix GeneChip Expression Analysis Technical Manual. Hybridization to Affymetrix U133plus2 GeneChips (54,614 probe sets, representing 47,000 transcripts), staining, washing and scanning procedures were carried out at the Genomic Facility in the National Center of Biotechnology (Madrid, Spain) as described in www.affymetrix.com (Affymetrix, Santa Clara, Calif.). The Signal Log Ratio estimates the magnitude and direction of change of a transcript. The log scale used is base 2, thus a Signal Log Ratio of 1.0 indicates an increase of the transcript level by 2 fold and −1.0 indicates a decrease by 2 fold. A Signal Log Ratio of zero would indicate no change.
With the aim of further investigating the mechanism of ChoKIs sensitization to the antitumoral effect of 5-FU, a gene expression analysis of the 5-FU-metabolisation pathway was performed in H460 cells treated at different times with MN58b and RSM-932A using affymetrix technology.

Assay [4] concerns H460 cells. The assay is described as follows: Cell proliferation assay (MTT). In kind it is cell-based, human. On the procedure:
as §1
as §2, with “conditions. Then, cells were treated with different concentrations of the ChoK inhibitors (quadruplicates of each concentration) and maintained for 72 hours.” for “conditions.”
Thus, disruption in the levels of acid ceramidase may allow ChoK inhibitors to have a better effect in these cells. To verify this hypothesis, we used the previously characterized acid ceramidase inhibitor, N-Oleoylethanolamine (NOE) (Grijalvo S., Chem Phys Lipids. 2006; 144:69-84), to investigate if the inhibition of acid ceramidase sensitizes tumour cell lines to ChoK inhibitors. To that end, H460 cells were pre-treated with NOE for three hours to inhibit acid ceramidase.
H460 cells were pre-treated with these compounds for three hours to inhibit ceramidases. […] Furthermore, the combined use of ChoK inhibitors and acid ceramidase inhibitors provides a further stronger anticancer activity.

For `CN(C)c1cc[n+](Cc2ccc(CCCCc3ccc(C[n+]4ccc(N(C)C)cc4)cc3)cc2)cc1` [MN58b, 1,4-(4-4′-Bis-((4-(dimethylamine)pyridinium-1-yl)methyl)diphenyl)butane dibromide], the IC 50 in assay [1] came out at 40.5 ± 6.2 µM. In addition, in assay [2], the “RESISTANT (number of samples)” value was 28 and the “SENSITIVES (number of samples)” value was 35. In the assay with H460 cells [3] (H460, 9 h), the “DUT (Deoxyuridine triphosphatase) gene expression” value is −1.17, the “RRM2 (Ribonucleotide Reductase) gene expression” value is given as −1.48, the “TYMS (Thymidylate synthetase) gene expression” value is recorded as −1.30 and the “UPP1 (Uridine phosphorylase 1) gene expression” value is reported as “+1.54”. Further, in the assay on H460 cells [3] (H460, 24 h), the “DUT (Deoxyuridine triphosphatase) gene expression” value is recorded as −2.03, the “RRM2 (Ribonucleotide Reductase) gene expression” value was −2.50, the “TYMS (Thymidylate synthetase) gene expression” value is given as −2.39 and the “UPP1 (Uridine phosphorylase 1) gene expression” value was “+1.76”. In addition, in the assay on H460 cells [4], the “figure in parentheses after IC50 48 h (not defined; fold vs primary cells)” value amounted to 6, the “figure in parentheses after IC50 72 h (not defined; fold vs primary cells)” value was 8 and the “figure in parentheses after IC50 144 h (not defined; fold vs primary cells)” value came to 3.

(Values after patent publication US20110256241A1, “METHODS AND COMPOSITIONS FOR THE TREATMENT OF CANCER” (TRASLATIONAL CANCER DRUGS PHARMA, S.L., priority 2008, published 2011).)
